Key:
LATS1 = LATS1 (Homo sapiens (Human), UniProt O95835); test: LATS1 biochemical assay (Table 1A, Compound Examples 1-290; method in the earlier part)
[1] = tested on: human corneal endothelial cells (CECs); test: Human corneal endothelial cell population expansion: fold cell expansion; type: cell-based; conditions: 10 micromolar compound, X-VIVO15 medium, 10 days, ratio of expanded to seeded cells
Description: (§1) Cells were cultured at 37° C. in 5% CO2.
(§2) For each compound, two sets of cultures were generated. A first set of cultures was fixed in 4% PFA for 20 minutes at room temperature after cells isolated from the cornea had attached to the cell culture dish (typically 24 h after cell plating). A second set of cultures was fixed in 4% PFA for 20 minutes at room temperature 10 days after the first one.
To measure cell density in all fixed cultures, the number of nuclei stained with Sytox Orange (ThermoFisher) were counted per surface area as follows: fixed cell cultures fixed were permeabilized in a solution of 0.3% Triton X-100 (Sigma-Aldrich). Cells were then labeled in a solution of 0.5 micromolar of Sytox Orange in PBS for 5 minutes at room temperature. Nuclei were counted under a Zeiss epifluorescence microscope. The expansion factor was then determined by calculating the ratio of the expanded population of cells to population of seeded cells.

[2] = tested on: human limbal stem cells (LSCs); test: Human limbal stem cell population expansion: percentage of p63alpha-positive cells; type: cell-based; conditions: 10 micromolar, XVIVO15 medium
Description: as §1
as §2, with “temperature” for “temperature 10 days”, “being cultured for two passages. Cells were passaged when they reached 90-100% confluence.” for “the first one.”
In order to observe that the expanded cell population expressed p63alpha, this was measured by immunohistochemistry as follows. The fixed cell cultures were permeabilized and blocked in a blocking solution of 0.3% Triton X-100 (Sigma-Aldrich) and 3% donkey serum in PBS for 30 minutes. Cells were then labeled with primary antibody in the blocking solution for 12 hours at 4° C. Primary antibody used was p63alpha from Cell Signalling. Samples were washed in PBS three times and donkey-raised secondary antibody Alexa Fluor 488 (Molecular Probes) at 1:500 dilution were applied for 30 minutes at room temperature. Cell nuclei were then labeled in a solution of 0.5 micromolar of Sytox Orange (ThermoFisher) in PBS for 5 minutes at room temperature.
To evaluate the percentage of p63alpha-positive cells, the number of cells labeled by the anti-p63alpha antibody was counted and the total number of cells was determined by counting the number of nuclei stained by Sytox Orange. The proportion of p63alpha-positive cells was then determined by calculating the percentage of Sytox-orange-positive nuclei that also expressed p63alpha.

[3] = tested on: human limbal stem cells (LSCs); test: Human limbal stem cell population expansion: expansion factor; type: cell-based; conditions: 10 micromolar, XVIVO15 medium, two passages, ratio of expanded to seeded cells
Description: as §1
as §2, with “temperature” for “temperature 10 days”, “being cultured for two passages. Cells were passaged when they reached 90-100% confluence.” for “the first one.”
To evaluate cell expansion ratios, nuclei were counted using a Zeiss LSM 880 confocal microscope. The expansion factor was then determined by calculating the ratio of the expanded population of cells to population of seeded cells.

[4] = target: Human LATS2 kinase domain protein (Homo sapiens (Human), UniProt Q9NRM7); test: LATS2 Biochemical Caliper Assay (Compound Examples 1-290); conditions: 400 micromolar ATP
In short: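 LATS2 catalytic domain (aa 553-1088), co-purified with His-tagged MOBKL1A, reacted with compound for 3 h at 25° C before EDTA (25 mM) stop. Substrate and product separated by microfluidic electrophoresis (Caliper LabChip 3000) and quantified by fluorescence intensity.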

[5] = tested on: human limbal stem cells (LSCs); test: Human limbal stem cell population expansion, immunohistochemical observation of p63alpha; type: cell-based; conditions: for LSC colony formation and p63alpha expression: 10 micromolar, 6 days without passaging
Description: Cells obtained as described in Example B1 were plated in 24-well plates (Corning) in limbal epithelium cell culture medium (DMEM F12 supplemented with 10% human serum and 1.3 mM calcium chloride) supplemented with LATS inhibitor compound example no. […] Cells were first cultured at 37° C. in 5% CO2 for 6 days after isolation without passaging (FIGS. 2A, 2B and 2C).
To evaluate the ability of the compounds to enable LSC expansion after two passages, LSCs were passaged and cultured for two weeks in the presence of compound example 49 to enable expansion (FIG. 2D). Limbal stem cells (LSCs) were passaged by treating cultures with Accutase for 10 minutes at 37° C., rinsing the cell suspension by centrifugation and plating cells in fresh LSC culture medium supplemented with LATS inhibitor compound example 49.
In order to observe that the expanded cell population expressed p63alpha, this was measured by immunohistochemistry as follows. Cell cultures were fixed with 4% PFA for 20 minutes, permeabilized and blocked in a blocking solution of 0.3% Triton X-100 (Sigma-Aldrich) and 3% donkey serum in PBS for 30 minutes. Cells were then labeled with primary antibody in the blocking solution for 12 hours at 4° C. Primary antibody used was p63alpha from Cell Signalling. Samples were washed in PBS three times and donkey-raised secondary antibody Alexa Fluor 488 (Molecular Probes) at 1:500 dilution were applied for 30 minutes at room temperature. Cells were counter-stained with a human nuclear antigen antibody (Millipore) at a 1:500 dilution in order to label all cells in the culture and confirm their human identity. […] Fluorescence was observed using a Zeiss LSM 880 confocal microscope.

[6] = tested on: human corneal endothelial cells (CECs); test: Human corneal endothelial cell population expansion, cell confluence (Incucyte); type: cell-based; conditions: 10 micromolar, 10 days
Description: Cells obtained as described in Example C1 were detached from the culture dish with 100 microlitres of Accutase (ThermoFisher) for 10 minutes at 37° C., cell suspensions were rinsed by centrifugation and plated in corneal endothelial cell culture medium (human endothelial SF medium (Invitrogen) with human serum) in 6-well plates (Corning) supplemented with LATS inhibitor compound example no. […] Cells were cultured at 37° C. in 5% CO2.
To measure cell proliferation, an Incucyte machine was used following the manufacturer's instructions (Essen Biosciences) to perform real-time quantitative live-cell analysis of cell confluence every 3 hours for 10 days.

Sequence of Human LATS2 kinase domain protein (Q9NRM7 553-1088): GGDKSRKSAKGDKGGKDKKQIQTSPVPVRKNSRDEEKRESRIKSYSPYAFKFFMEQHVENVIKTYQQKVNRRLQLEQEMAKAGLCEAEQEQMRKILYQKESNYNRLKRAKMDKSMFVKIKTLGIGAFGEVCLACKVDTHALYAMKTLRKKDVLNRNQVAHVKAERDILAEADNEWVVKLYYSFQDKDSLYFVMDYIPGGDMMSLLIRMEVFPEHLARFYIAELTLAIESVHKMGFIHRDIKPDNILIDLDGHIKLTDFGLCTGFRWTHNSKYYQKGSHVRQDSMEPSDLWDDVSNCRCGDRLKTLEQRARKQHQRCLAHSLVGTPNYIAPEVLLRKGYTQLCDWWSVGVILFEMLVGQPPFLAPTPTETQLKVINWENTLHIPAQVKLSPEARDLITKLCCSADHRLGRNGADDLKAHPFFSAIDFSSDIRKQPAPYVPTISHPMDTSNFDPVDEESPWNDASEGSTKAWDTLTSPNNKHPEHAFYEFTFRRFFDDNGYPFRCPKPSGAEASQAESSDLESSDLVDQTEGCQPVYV
Sequence of Human LATS2 kinase domain protein (Q7L9L4 whole entry partner, the tested form may be a part): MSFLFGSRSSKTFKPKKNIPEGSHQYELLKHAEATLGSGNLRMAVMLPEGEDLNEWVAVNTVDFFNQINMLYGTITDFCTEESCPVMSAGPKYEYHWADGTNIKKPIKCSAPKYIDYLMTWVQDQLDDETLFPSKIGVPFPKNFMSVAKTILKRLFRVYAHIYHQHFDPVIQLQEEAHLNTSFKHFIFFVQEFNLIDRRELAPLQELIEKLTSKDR
Sequence of LATS1 (O95835 whole entry, looked up): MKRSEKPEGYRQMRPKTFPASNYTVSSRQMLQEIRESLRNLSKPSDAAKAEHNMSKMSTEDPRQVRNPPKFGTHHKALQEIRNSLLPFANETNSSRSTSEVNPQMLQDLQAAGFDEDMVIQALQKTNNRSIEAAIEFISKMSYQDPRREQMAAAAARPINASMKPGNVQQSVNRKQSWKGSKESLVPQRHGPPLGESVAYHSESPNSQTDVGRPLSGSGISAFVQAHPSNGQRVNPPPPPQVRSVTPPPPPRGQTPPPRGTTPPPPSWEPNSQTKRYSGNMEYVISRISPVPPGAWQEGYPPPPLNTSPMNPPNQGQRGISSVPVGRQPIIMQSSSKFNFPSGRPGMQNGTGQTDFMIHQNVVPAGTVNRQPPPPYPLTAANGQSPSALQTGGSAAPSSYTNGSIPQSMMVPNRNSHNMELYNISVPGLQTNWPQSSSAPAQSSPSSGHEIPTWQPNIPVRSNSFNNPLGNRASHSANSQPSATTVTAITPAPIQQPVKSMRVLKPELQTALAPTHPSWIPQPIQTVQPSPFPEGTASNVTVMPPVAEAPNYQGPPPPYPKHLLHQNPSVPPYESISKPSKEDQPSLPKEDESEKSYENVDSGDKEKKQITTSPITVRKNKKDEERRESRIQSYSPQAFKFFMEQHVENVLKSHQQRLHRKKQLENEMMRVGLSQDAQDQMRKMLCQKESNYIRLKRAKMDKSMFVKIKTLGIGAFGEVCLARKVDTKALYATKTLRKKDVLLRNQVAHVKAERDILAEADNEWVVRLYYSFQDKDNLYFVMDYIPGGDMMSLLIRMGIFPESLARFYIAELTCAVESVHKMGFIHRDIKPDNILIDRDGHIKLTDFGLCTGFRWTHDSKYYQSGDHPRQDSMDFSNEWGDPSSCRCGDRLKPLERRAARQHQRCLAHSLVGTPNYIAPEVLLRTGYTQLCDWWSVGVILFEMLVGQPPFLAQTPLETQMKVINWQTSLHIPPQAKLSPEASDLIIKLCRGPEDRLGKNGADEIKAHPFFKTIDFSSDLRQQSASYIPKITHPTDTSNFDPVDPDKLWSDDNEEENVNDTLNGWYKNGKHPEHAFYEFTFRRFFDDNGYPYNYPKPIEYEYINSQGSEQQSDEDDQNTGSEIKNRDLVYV
Sequence of LATS1 (Q7L9L4 whole entry partner, looked up): as the sequence (Q7L9L4 whole entry partner, the tested form may be a part) above

| SMILES | IC50 (LATS1) [nM] | IC50 [4] [nM] | Expansion factor (Fold Cell expansion) [1] | Percentage of p63a-positive cells [2] [%] | Expansion factor [3] | LSC colony formation and p63alpha expression [5] | LSC population expansion after passaging ([5]; passaged and cultured two weeks) | Proliferation of human CECs (percentage confluence over time) [6] |
| --- | --- | --- | --- | --- | --- | --- | --- | --- |
| CC(C)(O)CC(C)(C)Nc1nc(-c2ccncc2)nc2cnccc12 [Example 49, 2,4-dimethyl-4-{[2-(pyridin-4-yl)pyrido[3,4-d]pyrimidin-4-yl]amino}pentan-2-ol] | 1 | 21 | 426 | 92 | 2029 | the cells formed colonies and expressed p63alpha | enabled cell population expansion and the formation of confluent cultures expressing p63alpha | could activate proliferation in these cells |
| Cc1n[nH]cc1-c1nc(NC2(C)CC2)c2ccncc2n1 [Example 133, 2-(3-methyl-1H-pyrazol-4-yl)-N-(1-methylcyclopropyl)pyrido[3,4-d]pyrimidin-4-amine] | 2 | 4 | 273 | 89 | 1205 | the cells formed colonies and expressed p63alpha | – | could activate proliferation in these cells |
| CC(C)(C)Nc1cc(-c2ccncc2)nc2cnccc12 [Example 261, N-(tert-butyl)-2-(pyridin-4-yl)-1,7-naphthyridin-4-amine] | 1 | 4 | 461 | 93 | 1717 | – | – | – |

Now from value to compound, other results behind:

| IC50 (LATS1) [nM] | IC50 [4] [nM] | SMILES | Expansion factor (Fold Cell expansion) [1] | Percentage of p63a-positive cells [2] [%] | Expansion factor [3] | LSC colony formation and p63alpha expression [5] | LSC population expansion after passaging ([5]; passaged and cultured two weeks) | Proliferation of human CECs (percentage confluence over time) [6] |
| --- | --- | --- | --- | --- | --- | --- | --- | --- |
| 2 | 50 | CCCNc1nc(-c2ccncc2)nc2cnccc12 [Example 14, N-propyl-2-(pyridin-4-yl)pyrido[3,4-d]pyrimidin-4-amine] | 337 | 93 | 1423 | – | – | – |
| 2 | 30 | c1cc(-c2nc(NC3CCCC3)c3ccncc3n2)ccn1 [Example 65, N-cyclopentyl-2-(pyridin-4-yl)pyrido[3,4-d]pyrimidin-4-amine] | 203 | 87 | 1048 | – | – | – |

Source: patent US11458138B2 (Novartis AG, priority 2017, dated 2022)
